Where two headings read alike, the source gives them in different places.
Legend:
[1] = system: Human testicular teratocarcinoma cells (833K); assay: Cytotoxicity, 833K; format: cell-based; conditions: for IC50 / IC90: Homo sapiens, 833K; for IC90: read-out: Cytotoxic Concentration IC90
Text: (§1) | cell growth by 50% (IC50) in μM.

HL-60 cells = assay: Growth inhibition, XTT assay, HL-60; format: cell-based; conditions: Homo sapiens
Experimental: (§2) Cells were platted on day 1, drug was added on day 2, and XTT assays (for HL-60, MT-2, MT-4 leukemic cells) or SRB assays (for 833K and SK-Br-3 solid tumor cells) were carried out on day 5.

[2] = system: Chinese hamster lung cells (DC-3F); assay: Cytotoxicity, DC-3F; format: cell-based; conditions: for IC50 / IC90: Cricetulus griseus, DC3F; for IC90: read-out: Cytotoxic Concentration IC90
Text: as §1

833K solid tumor cells = assay: Growth inhibition, SRB assay, 833K; format: cell-based; conditions: Homo sapiens, Table 8, 833K
Experimental: as §2

sarcoma 180 [3] = assay: Antitumor activity against sarcoma 180 in B6D2F1 mice, b.i.d.x5; format: in vivo, mouse
Text: ^a Tumor (3 × 10^6 cells) was inoculated S.C. on day -3.
Antitumor treatment started on day 1, b.i.d.X5, IP.

sarcoma 180 [4] = assay: Antitumor activity against sarcoma 180 in mice (s.c. tumor, i.p. treatment); format: in vivo, mouse
Experimental: ^a Tumor (2 × 10^6 cells) was inoculated s.c. Treatment
started day 4, QD × 5, i.p.; control had nine mice, and each dose
two mice; tumor size was evaluated on Day 7 after the beginning of
started day 4, I.P., QD × 5; control had 3 mice, and each dose had
mice; Tumor size was evaluated on day 7 after the beginning of treatment.

[5] = system: Lewis lung adenocarcinoma; assay: Anticancer activity in BDF mice bearing Lewis lung adenocarcinoma; format: in vivo, mouse
Experimental: ^a Tumor (4 × 10^6 cells) was inoculated S.C. Treatment
started on day 4, I.P., QDX5. Control had 4 mice and each dose had 3 mice
Tumor sizes were evaluated on day 7, day 10 and day 14 after beginning of […]

[6] = system: Human acute lymphoblastic T cells (CCRF-CEM); assay: Cytotoxicity, CCRF-CEM; format: cell-based; conditions: for IC50 / IC90: Homo sapiens, CCRF-CEM; for IC90: read-out: Cytotoxic Concentration IC90
Text: as §1

MT4 cells = assay: Cytotoxicity, MT4; format: cell-based; conditions: Table 15, MT4
[7] = system: Human promyelocytic leukemic cell (HL-60); assay: Cytotoxicity, HL-60; format: cell-based; conditions: for IC50 / IC90: Homo sapiens; for IC90: read-out: Cytotoxic Concentration IC90
Text: as §1

[8] = system: Human breast adenocarcinoma cells (SK-Br-3); assay: Cytotoxicity, SK-Br-3; format: cell-based; conditions: for IC50 / IC90: Homo sapiens; for IC90: read-out: Cytotoxic Concentration IC90
Text: as §1

MT-4 leukemic cells = assay: Growth inhibition, XTT assay, MT-4; format: cell-based; conditions: Table 8, MT-4, XTT
Experimental: as §2

[9] = system: Chinese hamster lung cells resistant to actinomycin D (DC-3F/ADII); assay: Cytotoxicity, DC-3F/ADII; format: cell-based; conditions: for IC50 / IC90: Cricetulus griseus, DC3F; for IC90: read-out: Cytotoxic Concentration IC90
Text: as §1

[10] = system: SK-Br-3 solid tumor cells; assay: Growth inhibition, SRB assay, SK-Br-3; format: cell-based; conditions: Homo sapiens, Table 8, SKBr-3, SRB
Experimental: as §2

[11] = Table 12, 0.15 mg/kg IP b.i.d.X5, Day 7
[12] = Table 12, 0.15 mg/kg IP b.i.d.X5, Day 14
[13] = Table 12, 0.2 mg/kg IP b.i.d.X5, Day 7
[14] = Table 12, 0.2 mg/kg IP b.i.d.X5, Day 14
[15] = Table 12, 0.3 mg/kg IP b.i.d.X5, Day 7
[16] = Table 12, 0.3 mg/kg IP b.i.d.X5, Day 14
[17] = Table 6, 0.2 mg/kg i.p. QD×5, day 7
[18] = Table 6, 0.5 mg/kg i.p. QD×5, day 7
[19] = Table 6, 2.0 mg/kg i.p. QD×5, day 7
[20] = Table 4, DC-3F/ADII, EQI-6 = (1)

CO[C@@]12[C@H](COC(N)=O)C3=C(C(=O)C(C)=C(N)C3=O)N1C[C@@H]1N[C@@H]12 [mitomycin C]
IC50 ([1]; Table 2, 833K (Testicular), read-out: concentration required to inhibit cell growth by 50% (IC50)): 318 nM
IC50 ([1]; Table 4, 833k, read-out: Cytotoxic Concentration IC50): 318 nM
IC90 ([1]; Table 4, 833k): 1530 nM
IC50 ([1]; Table 15, 833K, read-out: Cytotoxic Concentration IC50): 394 nM
IC90 ([1]; Table 15, 833K): 2290 nM
Cytotoxic Concentration IC95 ([1]; Table 4, 833k): 2610 nM
ratio of IC50 to EQI-6 (in parentheses) ([1]; Table 4, 833k, EQI-6 = (1)): 45.4 ×
ratio of IC90 to EQI-6 (in parentheses) ([1]; Table 4, 833k, EQI-6 = (1)): 61.2 ×
ratio of IC95 to EQI-6 (in parentheses) ([1]; Table 4, 833k, EQI-6 = (1)): 66.9 ×
Cytotoxic Concentration IC95 ([1]; Table 15, 833K): 4155 nM
IC50 (HL-60 cells; Table 8, HL-60, XTT, growth inhibition, read-out: IC50): 80 nM
IC50 (HL-60 cells; Table 9, HL 60, XTT, 72 h, read-out: Dm): 48 nM
IC50 ([2]; Table 2, DC-3F, read-out: concentration required to inhibit cell growth by 50% (IC50)): 81 nM
IC50 ([2]; Table 4, DC-3F, read-out: Cytotoxic Concentration IC50): 81.2 nM
IC90 ([2]; Table 4, DC-3F): 374 nM
IC50 ([2]; Table 13, DC-3F, read-out: Cytotoxic Concentration IC50): 59 nM
IC90 ([2]; Table 13, DC-3F): 166 nM
Cytotoxic Concentration IC95 ([2]; Table 4, DC-3F): 629 nM
ratio of IC50 to EQI-6 (in parentheses) ([2]; Table 4, DC-3F, EQI-6 = (1)): 45.1 ×
ratio of IC90 to EQI-6 (in parentheses) ([2]; Table 4, DC-3F, EQI-6 = (1)): 34 ×
ratio of IC95 to EQI-6 (in parentheses) ([2]; Table 4, DC-3F, EQI-6 = (1)): 31.6 ×
Cytotoxic Concentration IC95 ([2]; Table 13, DC-3F): 235 nM
IC50 (833K solid tumor cells): 300 nM
AWC (average weight change) (sarcoma 180 [3]; [11]): -0.6 g
Avg Tumor Volume (T/C) (sarcoma 180 [3]; [11]): 0.650
AWC (average weight change) (sarcoma 180 [3]; [12]): +0.2 g
Avg Tumor Volume (T/C) (sarcoma 180 [3]; [12]): 0.814
AWC (average weight change) (sarcoma 180 [3]; [13]): +0.8 g
Avg Tumor Volume (T/C) (sarcoma 180 [3]; [13]): 0.538
AWC (average weight change) (sarcoma 180 [3]; [14]): -0.6 g
Avg Tumor Volume (T/C) (sarcoma 180 [3]; [14]): 0.485
AWC (average weight change) (sarcoma 180 [3]; [15]): -1.8 g
Avg Tumor Volume (T/C) (sarcoma 180 [3]; [15]): 0.249
AWC (average weight change) (sarcoma 180 [3]; [16]): -1.0 g
Avg Tumor Volume (T/C) (sarcoma 180 [3]; [16]): 0.394
tumor inhibition (sarcoma 180 [4]; 0.5 mg/kg i.p. QDx5, sarcoma): 37.5%
AVE TUMOR VOLUME (T/C) (sarcoma 180 [4]; [17]): 0.845
AWC (average weight change) (sarcoma 180 [4]; [17]): -0.5 g
AVE TUMOR VOLUME (T/C) (sarcoma 180 [4]; [18]): 0.625
AWC (average weight change) (sarcoma 180 [4]; [18]): -2.3 g
AVE TUMOR VOLUME (T/C) (sarcoma 180 [4]; [19]): 0.188
AWC (average weight change) (sarcoma 180 [4]; [19]): -1.4 g
tumor inhibition ([5]; 0.8 mg/kg i.p. QDx5, day 14, Lewis lung adenocarcinoma): 56.3%
Average Tumor Volume (T/C) ([5]; Table 7, 0.4 mg/kg i.p. QDX5, Day 7): 0.490
Average Tumor Volume (T/C) ([5]; Table 7, 0.4 mg/kg i.p. QDX5, Day 10): 0.411
Average Tumor Volume (T/C) ([5]; Table 7, 0.4 mg/kg i.p. QDX5, Day 14): 0.515
Average Tumor Volume (T/C) ([5]; Table 7, 0.8 mg/kg i.p. QDX5, Day 7): 0.356
Average Tumor Volume (T/C) ([5]; Table 7, 0.8 mg/kg i.p. QDX5, Day 10): 0.363
Average Tumor Volume (T/C) ([5]; Table 7, 0.8 mg/kg i.p. QDX5, Day 14): 0.437
mortality ([5]; Table 7, 2.0 mg/kg i.p. QDX5): All of three mice died on day 8 or day 9
Average Tumor Volume (T/C) ([5]; Table 7, 2.0 mg/kg i.p. QDX5, Day 7): 0.169
IC50 ([6]; Table 1, CCRF-CEM, read-out: IC50): 140 nM
IC50 ([6]; Table 2, CCRF/CEM, read-out: concentration required to inhibit cell growth by 50% (IC50)): 140 nM
IC50 ([6]; Table 3, CCRF-CEM, read-out: Cytotoxic Concentration IC50): 140 nM
IC90 ([6]; Table 3, CCRF-CEM): 364 nM
IC50 ([6]; Table 14, CCRF-CEM, read-out: Cytotoxic Concentration IC50): 96 nM
IC90 ([6]; Table 14, CCRF-CEM): 370 nM
Cytotoxic Concentration IC95 ([6]; Table 3, CCRF-CEM): 503 nM
ratio of IC50 to EQI-6 (in parentheses) ([6]; Table 3, CCRF-CEM, EQI-6 = (1)): 280 ×
ratio of IC90 to EQI-6 (in parentheses) ([6]; Table 3, CCRF-CEM, EQI-6 = (1)): 165 ×
ratio of IC95 to EQI-6 (in parentheses) ([6]; Table 3, CCRF-CEM, EQI-6 = (1)): 136 ×
Cytotoxic Concentration IC95 ([6]; Table 14, CCRF-CEM): 584 nM
IC50 (MT4 cells; Homo sapiens, read-out: Cytotoxic Concentration IC50): 115 nM
IC90 (MT4 cells; Homo sapiens, read-out: Cytotoxic Concentration IC90): 253 nM
Cytotoxic Concentration IC95 (MT4 cells): 331 nM
IC50 ([7]; HL-60, Table 1, HL-60, read-out: IC50): 48.4 nM
IC50 ([7]; HL-60, Table 2, HL60, read-out: concentration required to inhibit cell growth by 50% (IC50)): 48 nM
IC50 ([7]; HL-60, Table 3, HL-60, read-out: Cytotoxic Concentration IC50): 48.4 nM
IC90 ([7]; HL-60, Table 3, HL-60): 197 nM
IC50 ([7]; HL-60, Table 15, HL-60, read-out: Cytotoxic Concentration IC50): 51 nM
IC90 ([7]; HL-60, Table 15, HL-60): 167 nM
Cytotoxic Concentration IC95 ([7]; Table 3, HL-60): 319 nM
ratio of IC50 to EQI-6 (in parentheses) ([7]; Table 3, HL-60, EQI-6 = (1)): 83.4 ×
ratio of IC90 to EQI-6 (in parentheses) ([7]; Table 3, HL-60, EQI-6 = (1)): 75.8 ×
ratio of IC95 to EQI-6 (in parentheses) ([7]; Table 3, HL-60, EQI-6 = (1)): 72.5 ×
Cytotoxic Concentration IC95 ([7]; Table 15, HL-60): 250 nM
IC50 ([8]; SK-BR-3, Table 2, SK-Br-3 (Breast), read-out: concentration required to inhibit cell growth by 50% (IC50)): 993 nM
IC50 ([8]; SK-BR-3, Table 4, SK-Br-3, read-out: Cytotoxic Concentration IC50): 993 nM
IC90 ([8]; SK-BR-3, Table 4, SK-Br-3): 21800 nM
IC50 ([8]; SK-BR-3, Table 13, SK-Br-3, read-out: Cytotoxic Concentration IC50): 2340 nM
IC90 ([8]; SK-BR-3, Table 13, SK-Br-3): 62900 nM
Cytotoxic Concentration IC95 ([8]; Table 4, SK-Br-3): 62300 nM
ratio of IC50 to EQI-6 (in parentheses) ([8]; Table 4, SK-Br-3, EQI-6 = (1)): 29.2 ×
ratio of IC90 to EQI-6 (in parentheses) ([8]; Table 4, SK-Br-3, EQI-6 = (1)): 16.6 ×
ratio of IC95 to EQI-6 (in parentheses) ([8]; Table 4, SK-Br-3, EQI-6 = (1)): 187.7 ×
Cytotoxic Concentration IC95 ([8]; Table 13, SK-Br-3): 192890 nM
IC50 (MT-4 leukemic cells): 150 nM
IC50 ([9]; Table 2, DC-3F/ADII (MDR/Actinomycin D), read-out: concentration required to inhibit cell growth by 50% (IC50)): 113 nM
IC50 ([9]; Table 4, DC-3F/ADII, read-out: Cytotoxic Concentration IC50): 113 nM
IC90 ([9]; Table 4, DC-3F/ADII): 380 nM
IC50 ([9]; Table 13, DC-3F/ADII, read-out: Cytotoxic Concentration IC50): 74 nM
IC90 ([9]; Table 13, DC-3F/ADII): 264 nM
Cytotoxic Concentration IC95 ([9]; Table 4, DC-3F/ADII): 575 nM
ratio of IC50 to EQI-6 (in parentheses) [9, 20]: 92.2 ×
ratio of IC90 to EQI-6 (in parentheses) [9, 20]: 24.7 ×
ratio of IC95 to EQI-6 (in parentheses) [9, 20]: 26.9 ×
Cytotoxic Concentration IC95 ([9]; Table 13, DC-3F/ADII): 406 nM
IC50 [10]: 300 nM

From patent US6020341A, “Enediyne quinone imines and methods of preparation and use thereof” (priority 1997, dated 2000)
